The values below come from patent US5126258A (priority 1988, dated 1992).

“Also recorded” adds a separate entry of the source. Where two headings read alike, the source gives them in different places. *1 amine or outer side, *2 acyl side, *3 side chain or, on linkers, in order; H or OH if unused. Where a SMILES comes first, the peptide text is derived from it. The star is where a group is joined. Glutaryl = O=C(CCCC(=O)[*:2])[*:1]; pNA = O=[N+]([O-])c1ccc(N*)cc1; Cbz = O=C(OCc1ccccc1)*

The subject of test [1] is monoclonal receptor NPN 43C9. In words: Amide hydrolysis by monoclonal receptor NPN 43C9, kinetics and inhibition. The settings on record: for Ki / nature of inhibition: substrate Compound 28; for Km: printed figure = km × 10^6; for Vmax: figure = Vmax × 10^9; for kcat: printed figure = kcat × 10^4. The test is classed as biochemical, mouse. Here is the method:
FIG. 6 is a graph showing a Lineweaver-Burk plot for amide hydrolysis of reactant ligand Compound 28 by monoclonal receptor NPN 43C9 present at 10 uM. Rates were determined as discussed hereinafter. The ordinate is in units of 1/initial velocity (1/v) in units of minutes/moles (M^-1 min) from zero through 10^7. The abscissa is in units of the reciprocal of the concentration of Compound 28 [1/(28)] in micromoles (uM^-1).
FIG. 7 is a graph showing plots of steady-state velocity (V×10^-9M^-1 min) as a function of total NPN 43C9 monoclonal receptor concentration (At ×10^-6 M) in the absence (I=O) and presence (I=44,=88 and =131) of different concentrations of reversible tight-binding inhibitor (Compound 24i). The indicia adjacent to each curve (I=O, I=44, I=88, and I=131) represent the total micromolar (uM) concentrations of that inhibitor. Each data set was obtained at a constant reactant ligand concentration (1600 uM). […] The data obtained were thereafter fit to an equation shown and discussed hereinafter.
FIG. 8 is a graph showing three further Lineweaver-Burk plots for the hydrolysis of Compound 28 by receptor NPN 43C9 present at 8 uM. Initial velocities were calculated as discussed hereinafter, whereas the ordinate and abscissa are as discussed for FIG. 6, albeit the values of the ordinate are from zero to 3×10^7 M^-1 min. In those plots, the uppermost plot ( ) was prepared from data obtained in the presence of 2000 uM Compound 29 as inhibitor, the middle plot ( ) was obtained in the presence of 1000 uM Compound 29 as inhibitor, and the lowest plot ( ) was obtained in the absence of inhibitor.
It was therefore stored at 4 degrees C in buffer containing 150 mM sodium chloride that was removed immediately prior to use by dialysis against 50 mM CHES, 80 uM NaCl at a pH value of 9.0, and at a temperature of 22 degrees C. This receptor was utilized at concentrations of 10 and 8 uM (as an average value determined from a BCA assay and O. D. 280 nm, using a molecular weight of 160,000 daltons for IgG).
Kinetic parameters for hydrolysis of reactant ligand Compound 28 were determined by measuring the initial linear absorbance change at 404 nm, release of p-nitroaniline. Monoclonal receptor concentrations utilized were 10 and 8 uM, as noted previously. Reactions were initiated by admixture of varying aliquots of a 50 or 100 mM stock solution of Compound 28 in DMF, to provide reactant ligand substrate concentrations of 100-1600 uM. Further studies were carried out using a mixed organic solvent containing dimethyl sulfoxide (DMSO) and acetonitrile (CH3 CN) to dissolve the ligand. In those studies, a final concentration of 5 percent (v/v) of organic solvent was utilized with DMSO comprising 0.2-2.4 volume percent of the final concentration and CH3 CN comprising the remainder of the organic solvent.
Transacylation reactions utilizing an amide reactant ligand as substrate have been studied with Compound 28 as the reactant ligand. In these studies, forty-four hybridomas were prepared that secreted forty-four monoclonal receptors that bound to a conjugate of the immunizing hapten and BSA as carrier protein. Of those forty-four receptors, two appeared to catalyze the hydrolysis reaction of Compound 28. One of those two receptors, NPN 43C9, was selected for further study, as is discussed below.
The initial rates of hydrolysis measured as a function of reactant ligand (Compound 28) concentration followed Michaelis-Menten kinetics.
*Parameters in the upper horizontal row were obtained in the presence of
DMF as a Compound 28solubilizing solvent, whereas parameters in the lower
horizontal row were detained in the presence of DMSO/CH3 CN as
Compound 28solubilizing solvent.
To establish the specificity of monoclonal receptor NPN 43C9, the rates of hydrolysis of potential reactant ligands modified in their acyl or aniline portions were studied. […]

In test [2] the test system is monoclonal receptor P3 6D4. Briefly: Stoichiometric transacylation reaction of monoclonal receptor P3 6D4 with coumarin ester Compound 5 (fluorescence) and its inhibition/inactivation. The test is classed as biochemical, mouse. Here is the method:
A Perkin-Elmer LS-5 fluorescence spectrometer was operated at a fixed wavelength, using 355 nanometers (nm) for excitation and measuring the emission at 455 nm. A stock solution of the coumarin ester 5 was prepared in dioxane and was diluted to the desired concentrations in Tris-HCl (50 mM, pH 7) or sodium phosphate (50 mM, pH 4-9).
Reactions were run at 23 degrees C and were initiated by the addition of an aliquot of antibody solution (1 mg/ml) to substrate solutions to provide a final protein concentration of 100 nM. Final fluorescence values were determined by hydrolysis of the substrate with pig liver esterase. The observed reaction rate was corrected for spontaneous hydrolysis. Reaction kinetics were studied by measuring initial rates under pseudo-first order conditions. Active protein concentration was extrapolated from fluorescence values at the end of the reaction. The kinetic parameters were obtained by fitting the data to a hyperbolic curve and from double reciprocal plots. Inhibition constants were determined from the Lineweaver-Burk plot data with at least five inhibitor concentrations. All the data were studied by a least squares analysis.
Antibody preparations were inactivated without introducing fluorescent products by the addition of the activated ester (Compound 8) in dioxane to a solution of the IgG (5 mg/ml) in Tris-HCl (50 mM, pH 6.5) at a ratio of 5 moles of the ester (Compound 8) per mole IgG.
Protein modification was performed in an analogous manner, by the addition of a dioxane solution of the reagent at a known concentration to the antibody. The solution was incubated for 30 minutes before filtration through Sephadex G-25. The activity remaining was compared to control samples. Aliquots of IgG (5 mg/ml) inactivated with the ester (Compound 8) were diluted with four volumes of phosphate buffer (50 mM, pH 4-9, at intervals of 1 pH unit). Any pH change was recorded, and the sample was stored at 4 degrees C for 24 hours.
Initially, the ester was used at a concentration that was about four-fold greater than that of the protein, and the mixture was incubated at pH 7.2 for 10 minutes. Any change in fluorescence above background was noted.
The termination of the reaction is noted by the return of the rate of fluorescence increase to the background level.

[3] abbreviates: DMF as Compound 28-solubilizing solvent.
Where [4] appears, read: DMSO/CH3CN as Compound 28-solubilizing solvent.

For orientation: Km means the substrate concentration at which the rate is half of its maximum. The Vmax is the rate approached at saturating substrate. Usually kcat stands for the number of substrate molecules converted per active site and unit of time at saturation.

On to `O=C(O)CCCC(=O)Nc1ccc(CC(=O)Nc2ccccc2[N+](=O)[O-])cc1`, for which the “substrate acceptance by NPN 43C9” value in test [1] was “non-substrates”.

As for `O=C(O)CCCC(=O)Nc1ccc(CC(=O)Oc2ccc([N+](=O)[O-])cc2)cc1`, in test [1], the “substrate acceptance by NPN 43C9” value is listed as “catalytically hydrolyzed”.

As for `N=C(N)NCCCC(NC(=O)c1ccccc1)C(=O)Nc1ccc([N+](=O)[O-])cc1` (racemic) [reference compound], the “substrate acceptance by NPN 43C9” value in test [1] is given as “not reactant ligand substrates”.

Take `O=C(Cc1ccc(NC(=O)C(F)(F)F)cc1)ON1C(=O)CCC1=O` [Compound 6]: the inactivation of receptor entry in test [2] is “specifically combine with the antibodies to produce an inactive product”.

Take `CC(=O)Nc1ccc(CP(=O)(O)Nc2ccc([N+](=O)[O-])cc2)cc1` [Compound 24i]: in test [1] (detected with inhibitor Compound 24i), the “calculated maximum number of enzyme binding sites” value was 5.1±0.9. Further, the Ki came to 2.5 µM in test [1] (infinite reactant ligand concentration, inhibitor binding to receptor in a complex, read-out: inhibition constant kii) and 10 µM in test [1] (low substrate concentration, inhibitor binding to free receptor, read-out: inhibition constant kis). Moreover, the nature of inhibition result in test [1] was “Tight binding inhibition; also recorded: mixed inhibitor”.

On to `O=C(O)CCCC(=O)Nc1ccc(CC(=O)Nc2ccc([N+](=O)[O-])cc2)cc1` [Compound 28], for which, in test [1], the “rate acceleration / rate enhancement relative to uncatalyzed reaction” value was 10^5 and the “substrate acceptance by NPN 43C9” value is “substrate”. Besides, in test [1] (setting [3]), the kcat/kuncat is listed as 1.5 × 10^5, the Vmax stood at 8.3 nM/s and the turnover number (kcat) came out at 0.00083 s⁻¹. Also, the Michaelis constant (Km) in test [1] (DMF as Compound 28-solubilizing solvent, pH 9.0) was 370 µM. In test [1] (setting [4]), the kcat/kuncat is listed as 2.5 × 10^5, the maximal velocity (Vmax) is 7 nM/s, the kcat was found to be 0.00133 s⁻¹ and the Michaelis-Menten constant (Km) was determined as 562 µM. Also, in test [1] (difference between binding of inhibitor (Ki) and Compound 28 (Km)), the “available transition state binding energy ΔΔG” value was -2.2 kcal/mol.

For the compound `O=C(O)CCCC(=O)Nc1ccc(CC(=O)Nc2cccc([N+](=O)[O-])c2)cc1` [Compound 29], in test [1], the “substrate acceptance by NPN 43C9” value was “lack of receptor-assisted hydrolysis” and the nature of inhibition entry is “inhibitor”. Further, in test [1] (listed as Compound 28 with m-nitroaniline for p-nitroaniline), the “substrate acceptance by NPN 43C9” value was “non-substrates”.

As to `O=C(O)CN(CCN(CC(=O)O)CC(=O)O)CC(=O)O` [EDTA, reference compound], in test [2], the “effect of additive on antibody-enhanced esterolysis of Compound 5” value is “failure of added EDTA to affect the reaction”.

`CC(C)C[C@H](N)C(=O)Nc1ccc([N+](=O)[O-])cc1` [L-leucine p-nitroanilide, reference compound]: the “substrate acceptance by NPN 43C9” value in test [1] is reported as “not reactant ligand substrates”.

Consider `NCCCC[C@H](N)C(=O)Nc1ccc([N+](=O)[O-])cc1` [L-lysine p-nitroanilide, reference compound], for which the “substrate acceptance by NPN 43C9” value in test [1] is “not reactant ligand substrates”.

Turning to `O=C(Nc1ccc([N+](=O)[O-])cc1)[C@@H]1CCCN1` [L-proline p-nitroanilide, reference compound], in test [1], the “substrate acceptance by NPN 43C9” value is reported as “not reactant ligand substrates”.

On to `CC(C)[C@H](N)C(=O)Nc1ccc([N+](=O)[O-])cc1` [L-valine p-nitroanilide, reference compound], for which the “substrate acceptance by NPN 43C9” value in test [1] is “not reactant ligand substrates”.

In the case of `CC(C)C[C@H](NC(=O)CNC(=O)CNC(=O)OCc1ccccc1)C(=O)Nc1ccc([N+](=O)[O-])cc1` [N-CBZ-glycyl-glycyl-L-leucine p-nitroanilide, reference compound] (Cbz-Gly-Gly-Leu-pNA), in test [1], the “substrate acceptance by NPN 43C9” value is “not reactant ligand substrates”.

For the compound `N=C(N)NCCC[C@H](NC(=O)OCc1ccccc1)C(=O)Nc1ccc([N+](=O)[O-])cc1` [N-alpha-CBZ-L-arginine p-nitroanilide, reference compound], the “substrate acceptance by NPN 43C9” value in test [1] is “not reactant ligand substrates”.

With `O=C(N[C@@H](Cc1ccc(O)cc1)C(=O)Nc1ccc([N+](=O)[O-])cc1)c1ccccc1` [N-benzoyl-L-tryrosine p-nitroanilide, reference compound], in test [1], the “substrate acceptance by NPN 43C9” value is “not reactant ligand substrates”.

As for `O=C(O)CCCC(=O)N[C@@H](Cc1ccccc1)C(=O)Nc1ccc([N+](=O)[O-])cc1` [N-glutaryl-L-phenylalanine p-nitroanilide, reference compound], the “substrate acceptance by NPN 43C9” value in test [1] is given as “not reactant ligand substrates”.

`N[C@@H](CSCc1ccccc1)C(=O)Nc1ccc([N+](=O)[O-])cc1` [S-benzyl-L-cysteine p-nitroanilide, reference compound]: the “substrate acceptance by NPN 43C9” value in test [1] is on record as “not reactant ligand substrates”.

Take `CC(=O)N[C@@H](CC(N)=O)C(=O)Nc1ccc([N+](=O)[O-])cc1` [acetyl-L-asparagine p-nitroanilide, reference compound]: the “substrate acceptance by NPN 43C9” value in test [1] was “not reactant ligand substrates”.

Regarding `O=C(O)Cc1ccc(NC(=O)C(F)(F)F)cc1` [carboxylate product of ester hydrolysis], the Ki in test [2] (summary, kinetic parameters at low pH values, read-out: Ki (inhibition of antibody esterolysis)) stood at 7 µM.

For `CC(C)C[C@H](NC(=O)[C@H](CCC(=O)O)NC(=O)CCCC(=O)O)C(=O)Nc1ccc([N+](=O)[O-])cc1` [glutaryl-glutamyl-L-leucine p-nitroanilide, reference compound] (Glutaryl-Glu-Leu-pNA), the “substrate acceptance by NPN 43C9” value in test [1] is reported as “not reactant ligand substrates”.

Turning to `CC(=O)Nc1ccc(CP(=O)(O)Nc2ccc([N+](=O)[O-])cc2)cc1` [inhibitor], the nature of inhibition entry in test [1] is recorded as “reversible”.

Take `CC(=O)Nc1ccc(CC(=O)Oc2ccc3ccc(=O)oc3c2)cc1` [reference compound]: in test [2], the “stoichiometric antibody reaction (release of alcohol)” value is on record as “not detected”.

Take zinc [reference compound]: the “effect of additive on antibody-enhanced esterolysis of Compound 5” value in test [2] (up to 100 micromolar added zinc and picolinic acid, EDTA concentration not given) was “No effect”.
